Test [1] deals with TNFα secretion from LPS stimulated frozen Peripheral Blood Mononuclear Cells (PBMC). The test is described as follows: inhibition of TNFα secretion from LPS stimulated human PBMC (hPBMC assay). It counts as cell-based. The note with it: LPS 1 μg/mL, overnight incubation, TNFα by HTRF. On the procedure: Activity of the compounds was investigated using human peripheral blood mononuclear cells (hPBMC). This assay was designed to measure the inhibition of the TNFα secretion from LPS stimulated frozen Peripheral Blood Mononuclear Cells (PBMC) isolated from human blood. TNFα levels were measured using HTRF® Human TNFα kit (Cisbio #62TNFPEC) which is a rapid and quantitative sandwich immunoassay based on TR-FRET technology.
Frozen PBMC were quickly thawed, resuspended in culture medium (RPMI 10% inactivated FBS) and viable cells were seeded in 96-well plates (50,000 cells/well). […] After overnight incubation at 37° C., 10 μL of cell supernatant were mixed with 5 μL of each tagged anti-TNFα specific antibody as recommended by the supplier. After 2 hours of incubation at room temperature, the HTRF® signals were measured using a microplate reader (wavelengths: excitation=337 nm, first emission=620 nm, second emission=665 nm).
On the technique in general: TR-FRET usually uses a lanthanide donor and a delayed reading to cut background.

The target of test [2] is Recombinant Human catalytic domains of MMP1 (Homo sapiens (Human), UniProt P03956). Briefly: MMP1 isolated enzyme assay, profluorescent peptidic substrate. It counts as biochemical. As to conditions: 10 minutes incubation at room temperature; read-out: MMP1 enz IC50. The text has this: Activity of the compounds was investigated using MMP1 isolated enzyme.
Chain of Recombinant Human catalytic domains of MMP1 (P03956 98-276): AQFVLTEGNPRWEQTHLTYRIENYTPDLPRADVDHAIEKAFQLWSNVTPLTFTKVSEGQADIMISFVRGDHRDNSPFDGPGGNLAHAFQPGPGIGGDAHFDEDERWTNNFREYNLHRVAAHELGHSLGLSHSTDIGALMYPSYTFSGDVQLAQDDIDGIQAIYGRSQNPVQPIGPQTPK
The target of test [3] is Recombinant Human ADAM17 catalytic domain (Homo sapiens (Human), UniProt P78536). The test is described as follows: TACE (ADAM17) isolated enzyme assay, profluorescent peptidic substrate. As to conditions: read-out: TACE enz IC50; ADAM17 catalytic domain 500 nM, 40 μM substrate, two hours.
Chain of Recombinant Human ADAM17 catalytic domain (P78536 223-474): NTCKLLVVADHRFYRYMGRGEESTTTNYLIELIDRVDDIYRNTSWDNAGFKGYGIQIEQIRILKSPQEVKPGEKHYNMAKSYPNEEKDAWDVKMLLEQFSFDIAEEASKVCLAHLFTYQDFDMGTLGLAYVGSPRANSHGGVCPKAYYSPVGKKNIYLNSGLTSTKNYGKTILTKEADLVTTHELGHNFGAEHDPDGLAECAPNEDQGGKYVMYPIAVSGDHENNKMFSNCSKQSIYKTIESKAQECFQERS
Protocol: Activity of the compounds was investigated using TACE (ADAM17) isolated enzyme. […] Mca fluorescence was quenched by the Dpa group until cleavage by ADAM17 at the Ala-Val bond separates the two moieties.
The enzymatic reaction was performed in 384-well microplates with a final volume of 10 μL containing 1% DMSO. Recombinant Human ADAM17 catalytic domain (500 nM) was assayed with 40 μM of substrate and serial dilutions of tested inhibitors (from 10000 nM to 0.04 nM). After two hours of incubation at room temperature, the fluorescence was measured using a microplate reader (320/425 nm).
Data were normalized using the average of positive controls (enzyme with no inhibitor) and negative controls (no enzyme). IC50 were calculated using a four-parameters logistic model.
For test [4], the target named is TACE enzyme (Homo sapiens (Human), UniProt P78536). The note with it: WO 00/44709, page 251, table 10, example 61; cited from earlier work.
Chain of TACE enzyme (P78536 215-824): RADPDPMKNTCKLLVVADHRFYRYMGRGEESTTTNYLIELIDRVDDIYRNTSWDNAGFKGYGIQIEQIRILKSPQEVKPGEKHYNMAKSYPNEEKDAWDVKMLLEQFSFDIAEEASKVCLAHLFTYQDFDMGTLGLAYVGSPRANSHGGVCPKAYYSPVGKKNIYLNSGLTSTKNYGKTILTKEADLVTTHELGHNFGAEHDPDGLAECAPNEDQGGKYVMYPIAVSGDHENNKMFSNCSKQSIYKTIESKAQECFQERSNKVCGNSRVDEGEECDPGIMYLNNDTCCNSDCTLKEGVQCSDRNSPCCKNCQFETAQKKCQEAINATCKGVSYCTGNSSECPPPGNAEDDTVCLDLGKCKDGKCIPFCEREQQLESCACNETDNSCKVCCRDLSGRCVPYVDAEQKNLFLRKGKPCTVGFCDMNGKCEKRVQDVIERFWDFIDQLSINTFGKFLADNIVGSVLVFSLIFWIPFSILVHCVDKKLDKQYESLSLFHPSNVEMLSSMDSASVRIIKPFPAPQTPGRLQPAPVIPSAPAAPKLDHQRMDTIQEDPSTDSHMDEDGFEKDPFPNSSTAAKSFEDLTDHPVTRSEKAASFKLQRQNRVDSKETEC

A value given as a limit tells only on which side of the number the result lay.

Consider `Cc1cc(COc2ccc(S(=O)(=O)NC3(CC(=O)NO)CN(C(=O)N4CCN(C)CC4)C3)cc2)c2ccccc2n1` [Example 10, N-hydroxy-2-(1-(4-methylpiperazine-1-carbonyl)-3-((4-((2-methylquinolin-4-yl)methoxy)phenyl)sulfonamido)azetidin-3-yl)acetamide], for which the IC50 in test [1] was below 50 nM; in test [2] it was above 10000 nM; in test [3], 2.8 nM.
In the same order, the values of `Cc1cc(COc2ccc(S(=O)(=O)NC3(C(=O)NO)CN(C(=O)C(C)C)C3)cc2)c2ccccc2n1` [Example 7b, N-hydroxy-1-isobutyryl-3-((4-((2-methylquinolin-4-yl)methoxy)phenyl)sulfonamido)azetidine-3-carboxamide] are below 50 nM, above 10000 nM and 5.2 nM.
Turning to `Cc1cc(COc2ccc(S(=O)(=O)NC3(CC(=O)NO)CN(C(=O)C(C)(C)N(C)C)C3)cc2)c2ccccc2n1` [Example 18, 2-(1-(2-(dimethylamino)-2-methylpropanoyl)-3-((4-((2-methylquinolin-4-yl)methoxy)phenyl)sulfonamido)azetidin-3-yl)-N-hydroxyacetamide], the IC50 is below 50 nM in test [1], above 10000 nM in test [2] and 3.5 nM in test [3].
As to `Cc1cc(COc2ccc(S(=O)(=O)NC3(CC(=O)NO)CN(C(=O)N4CCCCC4)C3)cc2)c2ccccc2n1` [Example 9, N-hydroxy-2-(3-((4-((2-methylquinolin-4-yl)methoxy)phenyl)sulfonamido)-1-(piperidine-1-carbonyl)azetidin-3-yl)acetamide], in test [1], the IC50 was below 50 nM.
For the compound `Cc1cc(COc2ccc(S(=O)(=O)NC3(C(=O)NO)CN(C(=O)CC4CCC4)C3)cc2)c2ccccc2n1` [Example 26f, 1-(2-cyclobutylacetyl)-N-hydroxy-3-((4-((2-methylquinolin-4-yl)methoxy)phenyl)sulfonamido)azetidine-3-carboxamide], the IC50 in test [1] is below 50 nM; in test [2] it was above 10000 nM; in test [3] it was 11.4 nM.
As for `Cc1cc(COc2ccc(S(=O)(=O)NC3(CC(=O)NO)CN(C(=O)CC(C)(C)C)C3)cc2)c2ccccc2n1` [Example 11, 2-(1-(3,3-dimethylbutanoyl)-3-((4-((2-methylquinolin-4-yl)methoxy)phenyl)sulfonamido)azetidin-3-yl)-N-hydroxyacetamide], the figures for the half-maximal inhibitory concentration (IC50) in test [1], in test [2] and in test [3] were below 50 nM, above 10000 nM and 8.2 nM, respectively.
Consider `CCCCC(=O)N1CC(NS(=O)(=O)c2ccc(OCc3cc(C)nc4ccccc34)cc2)(C(=O)NO)C1` [Example 7i, N-hydroxy-3-((4-((2-methylquinolin-4-yl)methoxy)phenyl)sulfonamido)-1-pentanoylazetidine-3-carboxamide], for which, in test [1], the IC50 is below 50 nM.
On to `Cc1cc(COc2ccc(S(=O)(=O)NC3(C(=O)NO)CN(C(=O)C(C)C)C3)cc2)c2cccc(C)c2n1` [Example 27, 3-((4-((2,8-dimethylquinolin-4-yl)methoxy)phenyl)sulfonamido)-N-hydroxy-1-isobutyrylazetidine-3-carboxamide], for which the IC50 in test [1] fell in the range of 100 to 500 nM.
In the case of `Cc1cc(COc2ccc(S(=O)(=O)NC3(CC(=O)NO)CN(C(=O)C4CCCC4)C3)cc2)c2ccccc2n1` [Example 4h, 2-(1-(cyclopentanecarbonyl)-3-((4-((2-methylquinolin-4-yl)methoxy)phenyl)sulfonamido)azetidin-3-yl)-N-hydroxyacetamide], in test [1], the IC50 was below 50 nM.
In test [1], `COC(=O)N1CC(CC(=O)NO)(NS(=O)(=O)c2ccc(OCc3cc(C)nc4ccccc34)cc2)C1` [Example 5b, methyl 3-(2-(hydroxyamino)-2-oxoethyl)-3-((4-((2-methylquinolin-4-yl)methoxy)phenyl)sulfonamido)azetidine-1-carboxylate] gave an IC50 below 50 nM.
Regarding `Cc1cc(COc2ccc(S(=O)(=O)N(C)C3(C(=O)NO)CN(C(=O)C(C)C)C3)cc2)c2cccc(F)c2n1` [Example 30, 3-((4-((8-fluoro-2-methylquinolin-4-yl)methoxy)-N-methylphenyl)sulfonamido)-N-hydroxy-1-isobutyrylazetidine-3-carboxamide], the IC50 in test [1] was below 50 nM.
Take `Cc1cc(COc2ccc(S(=O)(=O)N(C)C3(C(=O)NO)CN(C(=O)CC(C)C)C3)cc2)c2ccccc2n1` [Example 19d, N-hydroxy-3-((N-methyl-4-((2-methylquinolin-4-yl)methoxy)phenyl)sulfonamido)-1-(3-methylbutanoyl)azetidine-3-carboxamide]: the 50% inhibitory concentration (IC50) in test [1] was below 50 nM.
Take `CCOC(=O)N1CC(CC(=O)NO)(NS(=O)(=O)c2ccc(OCc3cc(C)nc4ccccc34)cc2)C1` [Example 5a, Ethyl 3-(2-(hydroxyamino)-2-oxoethyl)-3-((4-((2-methylquinolin-4-yl)methoxy)phenyl)sulfonamido)azetidine-1-carboxylate]: the IC50 in test [1] is below 50 nM.
Same read-out and setting: next, `Cc1cc(COc2ccc(S(=O)(=O)NC3(CC(=O)NO)CN(C(=O)CN4CCCCC4)C3)cc2)c2ccccc2n1` [Example 12, N-hydroxy-2-(3-((4-((2-methylquinolin-4-yl)methoxy)phenyl)sulfonamido)-1-(2-(piperidin-1-yl)acetyl)azetidin-3-yl)acetamide]: below 50 nM; `Cc1cc(COc2ccc(S(=O)(=O)NC3(CC(=O)NO)CN(C(=O)OC(C)C)C3)cc2)c2ccccc2n1` [Example 5d, isopropyl 3-(2-(hydroxyamino)-2-oxoethyl)-3-((4-((2-methylquinolin-4-yl)methoxy)phenyl)sulfonamido)azetidine-1-carboxylate]: below 50 nM.
With `CCN1CCN(C(=O)N2CC(CC(=O)NO)(NS(=O)(=O)c3ccc(OCc4cc(C)nc5ccccc45)cc3)C2)CC1` [Example 28b, 2-(1-(4-ethylpiperazine-1-carbonyl)-3-((4-((2-methylquinolin-4-yl)methoxy)phenyl)sulfonamido)azetidin-3-yl)-N-hydroxyacetamide], the IC50 is below 50 nM in test [1], above 10000 nM in test [2] and 5.6 nM in test [3].
In test [1], `Cc1cc(COc2ccc(S(=O)(=O)NC3(CC(=O)NO)CN(C(=O)CC(C)C)C3)cc2)c2ccccc2n1` [Example 4a, N-hydroxy-2-(1-(3-methylbutanoyl)-3-((4-((2-methylquinolin-4-yl)methoxy)phenyl)sulfonamido)azetidin-3-yl)acetamide] gave an IC50 below 50 nM.
On the same count and under the same terms, next, `CCC(CC)C(=O)N1CC(NS(=O)(=O)c2ccc(OCc3cc(C)nc4ccccc34)cc2)(C(=O)NO)C1` [Example 7f, 1-(2-ethylbutanoyl)-N-hydroxy-3-((4-((2-methylquinolin-4-yl)methoxy)phenyl)sulfonamido)azetidine-3-carboxamide]: 50 to 100 nM.
In test [1], `Cc1cc(COc2ccc(S(=O)(=O)NC3(C(=O)NO)CN(C(=O)CC(C)C)C3)cc2)c2ccccc2n1` [Example 7c, N-hydroxy-1-(3-methylbutanoyl)-3-((4-((2-methylquinolin-4-yl)methoxy)phenyl)sulfonamido)azetidine-3-carboxamide] came in with an IC50 below 50 nM.
The compound `CC[C@H](C)C(=O)N1CC(NS(=O)(=O)c2ccc(OCc3cc(C)nc4ccccc34)cc2)(C(=O)NO)C1` [Example 26d, (S)-N-hydroxy-1-(2-methylbutanoyl)-3-((4-((2-methylquinolin-4-yl)methoxy)phenyl)sulfonamido)azetidine-3-carboxamide] displayed a half-maximal inhibitory concentration (IC50) in test [1] below 50 nM.
Consider `CC1(C)SCCN(S(=O)(=O)c2ccc(OCC#CCO)cc2)[C@H]1C(=O)NO` [Apratastat], for which, in test [4], the “selectivity for the TACE enzyme compared with certain MMPs” value is given as “not selective”.

A word on the IC50: it is the concentration at which inhibition is half-maximal.

Source of the values: US10556883B2, “Benzenesulfonamide compounds, method for synthesizing same, and use thereof in medicine and cosmetics” (GALDERMA RESEARCH & DEVELOPMENT, priority 2016, dated 2020).
